From ChEMBL document CHEMBL1122122, “Drug latentiation by gamma-glutamyl transpeptidase” (J Med Chem, 1982) come the findings set out here.

Each structure is given as a SMILES string. Residues, ends and D or L forms follow the SMILES beside them.

This experiment is described as follows: Compound evaluated for drug latentiation activity by determining relative rate of cleavage by gamma-glutamyl transpeptidase. Type of experiment: functional.
In turn, `NC(CCC(=O)Nc1cccc(O)c1)C(=O)O` (stereo not given) returned a Relative activity of 96.
In the case of `CSC[C@H](NC(=O)CC[C@H](N)C(=O)O)C(=O)NCC(=O)O` it was 100.
The result for `NC(CCC(=O)NCCCC(=O)O)C(=O)O` (stereo not given) reads 9.
In the case of `CCC(NC(=O)CCC(N)C(=O)O)C(=O)O` (stereo not given) it was 95.
Compound `NC(CCC(=O)Nc1ccc(O)cc1)C(=O)O` (stereo not given) had a Relative activity of 98.
As for `NC(CCC(=O)NC1(C(=O)O)CCCC1)C(=O)O` (stereo not given), the Relative activity came out at 19.
On to `NC(CCC(=O)N1CSCC1C(=O)O)C(=O)O` (stereo not given), for which the Relative activity worked out at 5.
Consider `NC(=O)CC[C@H](N)C(=O)NCC(=O)O` (H-Gln-Gly-OH), for which the Relative activity amounted to 70.
In the case of `NC(CCC(=O)N1CCCC1C(=O)O)C(=O)O` (stereo not given) it was 4; in that of `NC(CCC(=O)Nc1ccccc1O)C(=O)O` (stereo not given), 95.
